From ChEMBL document CHEMBL4706500, “Identification of dibucaine derivatives as novel potent enterovirus 2C helicase inhibitors: In vitro, in vivo, and combination therapy study” (Eur J Med Chem, 2020)
Active and inactive are the calls of the source. No cut-off for these calls is given here.

Experiments:
[1] = system: Enterovirus A71; assay: Antiviral activity against Enterovirus A71 infected in human RD cells assessed as inhibition of viral replication measured by CCK-8 assay; assay type: functional, organism-based; settings: Enterovirus A
[2] = system: RD; assay: Cytotoxicity against human RD cells infected with Enterovirus A71 assessed as reduction in cell viability measured by CCK-8 assay; assay type: functional
[3] = Selectivity index, ratio of CC50 for human RD cells infected with Enterovirus A71 to EC50 for Enterovirus A71 infected in human RD cells; assay type: toxicity, cell-based; settings: read-out: Selectivity Index
[4] = system: Enterovirus A71; assay: Antiviral activity against Enterovirus A71 infected in human RD cells using HEX-labelled RNA as substrate assessed as inhibition of dsRNA unwinding by measuring accumulation of dsRNA at 0.56 uM treated 8 hpi by gel based flourescence assay; assay type: functional, organism-based
[5] = system: Enterovirus A71; assay: Antiviral activity against Enterovirus A71 infected in human RD cells using HEX-labelled RNA as substrate assessed as increase in accumulation of 2C at 4.95 uM measured after 8hpi by gel based flourescence assay; assay type: functional, organism-based
[6] = system: Enterovirus A71; assay: Antiviral activity against Enterovirus A71 infected in human RD cells assessed as inhibition of viral replication measured after 48 hrs by plaque assay; assay type: functional, organism-based
[7] = system: Enterovirus A71; assay: Antiviral activity against Enterovirus A71 infected in human RD cells assessed as inhibition of 2C expression measured after 24 hrs by Western blot assay; assay type: functional, organism-based
[8] = system: Enterovirus A71; assay: Antiviral activity against Enterovirus A71 at early stage of life cycle infected in human RD cells assessed as VP1 expression at 3.2 uM treated 12 hpi measured upto 8 hrs by time of addition assay; assay type: functional, organism-based; settings: time hrs <=8
[9] = system: Enterovirus A71; assay: Antiviral activity against EV-A71 GZ-C11 infected in KM mouse assessed as prevention of death administered in presence of emetine at 6 mg/kg, po; assay type: functional, organism-based
[10] = system: Enterovirus A71; assay: Antiviral activity against EV-A71 GZ-C11 infected in KM mouse assessed as decrease in viral infection clinical symptoms administered 6 mg/kg, po bid for 4 days treatment started 6 hrs post infection measured on day 14 relative to control; assay type: functional, organism-based; settings: time 14.0 day
[11] = system: Enterovirus A71; assay: Antiviral activity against Enterovirus A71 at early stage of life cycle infected in African green monkey Vero cells assessed as VP1 expression at 3.2 uM treated 12 hpi measured upto 8 hrs by time of addition assay; assay type: functional, organism-based; settings: time hrs <=8
[12] = system: Enterovirus A71; assay: Antiviral activity against Enterovirus A71 infected in African green monkey Vero cells assessed as reduction in viral RNA titer levels at early stage of life cycle at 3.2 uM treated 12 hpi measured upto 8 hrs by time of addition assay; assay type: functional, organism-based; settings: time hrs <=8
[13] = system: Enterovirus A71; assay: Antiviral activity against Enterovirus A71 infected in human RD cells using HEX-labelled RNA as substrate assessed as inhibition of dsRNA unwinding by measuring accumulation of dsRNA at 4.95 uM treated 8 hpi by gel based flourescence assay; assay type: functional, organism-based
[14] = system: RD; assay: Inhibition of 2C ATPase helicase activity in Enterovirus A71 infected in human RD cells measured by gel electrophoresis method; assay type: cell-based
[15] = system: Enterovirus A71; assay: Antiviral activity against EV-A71 GZ-C11 infected in KM mouse assessed as improvement in survival rate administered 4 mg/kg, po bid for 4 days starting 6 hrs post infection measured on day 14 (reference value: 30%); assay type: functional; settings: Enterovirus A, 96 h, time 4 day
[16] = Toxicity in 14 day suckling KM mouse assessed as changes in weight growth at 6 mg/kg, po bid for 4 successive days measured on day 12 relative to control; assay type: organism-based; settings: in vivo, 288 h, time 12 day
[17] = system: Enterovirus A71; assay: Antiviral activity against Enterovirus A71 infected in African green monkey vero cells assessed as down regulation of VP1 expression measured after 24 hrs by immunofluorescence assay; assay type: functional, organism-based
[18] = system: Enterovirus A71; assay: Antiviral activity against EV-A71 GZ-C11 infected in KM mouse assessed as improvement in survival rate administered 6 mg/kg, po bid for 4 days starting 6 hrs post infection measured on day 14 (reference value: 30%); assay type: functional; settings: Enterovirus A, 96 h, time 4 day
[19] = system: Enterovirus A71; assay: Antiviral activity against Enterovirus A71 infected in human RD cells assessed as inhibition of VP1 expression measured after 24 hrs by Western blot assay; assay type: functional, organism-based

Molecule `CCCCOc1cc(C(=O)NCCCN(C)C)c2ccccc2n1` has an EC50 [1] of 100 µM.
Molecule `CCCNC(=O)c1cc(OCC)nc2ccccc12` has a CC50 [2] greater than 70.2 µM, an EC50 [1] of 2.02 µM and a selectivity ratio [3] greater than 34.8.
For `CCCCOc1cc(C(=O)NCCN(CC)CC)c2ccccc2n1` [DIBUCAINE], the CC50 [2] was greater than 97 µM, the EC50 [1] was 2.27 µM and the selectivity ratio [3] was greater than 42.7.
For `CCCCOc1cc(C(=O)NCCN2CCCC2)c2ccccc2n1`, the CC50 [2] was greater than 97.7 µM, the EC50 [1] was 1.53 µM and the selectivity ratio [3] was greater than 64.1.
`CCCCOc1cc(C(=O)NCCN2CCCCC2)c2ccccc2n1` gave a CC50 [2] of 93.8 µM and an EC50 [1] of 1.47 µM.
For `CC(C)S(=O)(=O)n1c(N)nc2ccc(/C(=N/O)c3ccccc3)cc21` [ENVIROXIME], the CC50 [2] was 28 µM, the EC50 [1] was 0.14 µM and the Activity [4] was “inactive”. For the same molecule, the selectivity ratio [3] was 200.
In the case of `CCCCOc1cc(C(=O)NCCN(C)C)c2ccccc2n1`, the Activity [5] is reported as “Active”, the Activity [6] is reported as “Active” and the CC50 [2] is reported as 106 µM. For the same molecule, the EC50 [1] was 1.24 µM, the Activity [7] was “Active” and the Activity [8] was “Active”. For the same molecule, the Activity [9] was “Active”, the Activity [10] was “Active” and the Activity [11] was “Active”. For the same molecule, the Activity [12] was “Active”, the Activity [13] was “Active” and the inhibition [14] was “Active”. The survival at 4 mg/kg [15] was 30%, the Activity [16] was “Non-Toxic” and the Activity [17] was “Active”. The survival at 6 mg/kg [18] was 67%, the Activity [19] was “Active” and the selectivity ratio [3] was 85.4.
Molecule `CCCCCCOc1cc(C(=O)NCCN(C)C)c2ccccc2n1` has a CC50 [2] of 36.4 µM, an EC50 [1] of 2.27 µM and a selectivity ratio [3] of 16.
In the case of `CCCCCOc1cc(C(=O)NCCN(C)C)c2ccccc2n1`, the CC50 [2] is reported as 75.9 µM, the EC50 [1] is reported as 1.58 µM and the selectivity ratio [3] is reported as 48.
In the case of `CCCCCOc1cc(C(=O)NCCN(CC)CC)c2ccccc2n1`, the CC50 [2] is reported as 35 µM, the EC50 [1] is reported as 5.83 µM and the selectivity ratio [3] is reported as 6.
`CCCOc1cc(C(=O)NCCN(CC)CC)c2ccccc2n1` showed a CC50 [2] greater than 101 µM, an EC50 [1] of 2.37 µM and a selectivity ratio [3] greater than 42.7.
Molecule `CCOc1cc(C(=O)NCCN(CC)CC)c2ccccc2n1` has a CC50 [2] greater than 106 µM, an EC50 [1] of 2.48 µM and a selectivity ratio [3] greater than 42.7.
In the case of `CCCNC(=O)c1cc(OCCC)nc2ccccc12`, the EC50 [1] is reported as greater than 100 µM.
For `CCCCOc1cc(C(=O)NCCCN(CC)CC)c2ccccc2n1`, the EC50 [1] was 100 µM and the selectivity ratio [3] was 64.
Molecule `CCOc1cc(C(=O)NCC(C)C)c2ccccc2n1` has an EC50 [1] greater than 100 µM.
With `CC(C)CNC(=O)c1cc(OC(C)C)nc2ccccc12` the CC50 [2] was greater than 116 µM, the EC50 [1] was 58.2 µM and the selectivity ratio [3] was greater than 2.
For `CCOc1cc(C(=O)NCCN(C)C)c2ccccc2n1`, the CC50 [2] was 116 µM, the EC50 [1] was 3.62 µM and the selectivity ratio [3] was 31.9.
`CCN(CC)CCNC(=O)c1cc(OC)nc2ccccc12` gave a CC50 [2] greater than 111 µM, an EC50 [1] of 27.7 µM and a selectivity ratio [3] greater than 4.
For `CCCCCCOc1cc(C(=O)NCCN(CC)CC)c2ccccc2n1`, the CC50 [2] was 33.6 µM, the EC50 [1] was 4.21 µM and the selectivity ratio [3] was 8.
Work on `CCCOc1cc(C(=O)NCCN(C)C)c2ccccc2n1` yielded a CC50 [2] greater than 111 µM, an EC50 [1] of 1.58 µM and a selectivity ratio [3] greater than 70.
`CCCOc1cc(C(=O)NCC(C)C)c2ccccc2n1` showed a CC50 [2] of 87.3 µM, an EC50 [1] of 58.2 µM and a selectivity ratio [3] of 1.5.
